Patent US20120245104A1, “NOVEL RETRO-INVERSO LEPTIN PEPTIDE ANTAGONISTS” (priority 2011, published 2012)
Like-named read-outs stand apart in the source and are kept apart here. Where a SMILES comes first, the peptide text is derived from it. Where no end group is shown, it is not given here. [ ]: non-standard residue; d: D form.

Test system: MCF-7 cells
Type: cell-based
Text: These peptides were compared to full length LPA-1 with respect to their abilities to inhibit leptin-induced cell growth. […] The same approach was employed with LPA-2 creating […] of the leptin molecule). […] Another LPA-2 scrambled peptide that may be used is […] NO: 3]. […] Retro-inverso peptides are peptides constructed with the reverse sequence and containing all D-amino acids. […] Retro-inverso LPA-1(24-6) sequence […] NO: 31] and retro-inverso LPA-2(89-72) […] NO: 32]. […] Studies were carried out using both MCF-7 and HT-29 cells. […] MCF-7 and HT-29 cells were cultured in DMEM-F12 medium containing 5% fetal bovine serum (FBS), 5 μg/ml insulin, 1% amphopthericin B, 100 μg/ml streptomycin and 100 U/ml penicillin until they were 80% confluent. The cells were washed twice with 100 mM phosphate saline buffer (PBS), pH 7.2 and cultured for additional 2 days in the same medium but without FBS (basal medium). Cells were washed as described before and cultured in basal medium containing the leptin peptides of the present invention or controls as described above.

[1] = Table 1, L-amino acid peptides, cell line not named in Table 1 (same values in Table 2 are for MCF-7), read-out: IC50 values
[2] = Table 2, MCF-7 cells, read-out: IC50 values

Row | Compound | IC50 [nM] | IC50 [1] [nM] | IC50 [2] [nM]
1 | CC[C@@H](C)[C@@H](NC(=O)[C@@H](CO)NC(=O)[C@@H](CC(N)=O)NC(=O)[C@H](NC(=O)[C@@H](CC(C)C)NC(=O)[C@@H](CCC(=O)O)NC(=O)[C@@H](CC(N)=O)NC(=O)[C@@H](CC(C)C)NC(=O)[C@@H](CCCNC(=N)N)NC(=O)[C@@H](CC(=O)O)NC(=O)[C@@H](CC(C)C)NC(=O)[C@@H](CC(C)C)NC(=O)[C@@H](Cc1c[nH]cn1)NC(=O)[C@H](N)C(C)C)C(C)C)C(=O)N[C@H](CCC(N)=O)C(=O)N[C@@H](C(=O)N[C@@H](C(=O)N[C@H](CC(N)=O)C(N)=O)C(C)C)[C@H](C)CC [D-V79] (H-[dV][dH][dL][dL][dD][dR][dL][dN][dE][dL][dV][dN][dS][dI][dQ][dI][dV][dN]-NH2) | 13.6 |  | 
2 | CC[C@@H](C)[C@@H](NC(=O)[C@@H](CC(C)C)NC(=O)[C@@H](CCC(=O)O)NC(=O)[C@@H](CC(N)=O)NC(=O)[C@@H](CC(C)C)NC(=O)[C@@H](CCCNC(=N)N)NC(=O)[C@@H](CC(=O)O)NC(=O)[C@@H](CC(C)C)NC(=O)[C@@H](CC(C)C)NC(=O)[C@@H](Cc1c[nH]cn1)NC(=O)[C@H](N)C(C)C)C(=O)N[C@H](CC(N)=O)C(=O)N[C@H](CO)C(=O)N[C@@H](C(=O)N[C@H](CCC(N)=O)C(=O)N[C@@H](C(=O)N[C@@H](C(=O)N[C@H](CC(N)=O)C(N)=O)C(C)C)[C@H](C)CC)[C@H](C)CC [D-I79] (H-[dV][dH][dL][dL][dD][dR][dL][dN][dE][dL][dI][dN][dS][dI][dQ][dI][dV][dN]-NH2) | 9.7 |  | 
3 | VQDDTKTLIKTIVTRINDI-NH2 [T10 (original amino acid)] | 25.7 |  | 
4 | CC[C@@H](C)[C@@H](NC(=O)[C@@H](CO)NC(=O)[C@@H](CC(N)=O)NC(=O)[C@@H](CC(C)C)NC(=O)[C@@H](CC(C)C)NC(=O)[C@@H](CCC(=O)O)NC(=O)[C@@H](CC(N)=O)NC(=O)[C@@H](CC(C)C)NC(=O)[C@@H](CCCNC(=N)N)NC(=O)[C@@H](CC(=O)O)NC(=O)[C@@H](CC(C)C)NC(=O)[C@@H](CC(C)C)NC(=O)[C@@H](Cc1c[nH]cn1)NC(=O)[C@H](N)C(C)C)C(=O)N[C@H](CCC(N)=O)C(=O)N[C@@H](C(=O)N[C@@H](C(=O)N[C@H](CC(N)=O)C(N)=O)C(C)C)[C@H](C)CC [D-L79] (H-[dV][dH][dL][dL][dD][dR][dL][dN][dE][dL][dL][dN][dS][dI][dQ][dI][dV][dN]-NH2) | 18.7 |  | 
5 | SRNVIQISNDLENLRDLLHVLAFSKS-NH2 [Full-length LPA-2 (70-95), reference compound] |  | 33 | 33
6 | NVIQISNDLENLRDLLHV-NH2 [D79 (original amino acid)] | 32 |  | 
7 | CC[C@@H](C)[C@@H](NC(=O)[C@@H](CO)NC(=O)[C@@H](CC(N)=O)NC(=O)[C@@H](CC(=O)O)NC(=O)[C@@H](CC(C)C)NC(=O)[C@@H](CCC(=O)O)NC(=O)[C@@H](CC(N)=O)NC(=O)[C@@H](CC(C)C)NC(=O)[C@@H](CCCNC(=N)N)NC(=O)[C@@H](CC(=O)O)NC(=O)[C@@H](CC(C)C)NC(=O)[C@@H](CC(C)C)NC(=O)[C@@H](Cc1c[nH]cn1)NC(=O)[C@H](N)C(C)C)C(=O)N[C@H](CCC(N)=O)C(=O)N[C@@H](C(=O)N[C@@H](C(=O)N[C@H](CC(N)=O)C(N)=O)C(C)C)[C@H](C)CC [D-D79(1), VHLLDRLNELDNSIQIVN] (H-[dV][dH][dL][dL][dD][dR][dL][dN][dE][dL][dD][dN][dS][dI][dQ][dI][dV][dN]-NH2) | 19.4 |  | 
8 | VQDDVKTLIKTIVTRINDI-NH2 | 20.7 |  | 
9 | VQDDAKTLIKTIVTRINDI-NH2 | 88 |  | 
10 | CC[C@@H](C)[C@@H](N)C(=O)N[C@H](CC(=O)O)C(=O)N[C@H](CC(N)=O)C(=O)N[C@@H](C(=O)N[C@H](CCCNC(=N)N)C(=O)N[C@@H](C(=O)N[C@@H](C(=O)N[C@@H](C(=O)N[C@@H](C(=O)N[C@H](CCCCN)C(=O)N[C@@H](C(=O)N[C@H](CC(C)C)C(=O)N[C@@H](C(=O)N[C@H](CCCCN)C(=O)N[C@@H](C(=O)N[C@H](CC(=O)O)C(=O)N[C@H](CC(=O)O)C(=O)N[C@H](CCC(N)=O)C(=O)N[C@@H](C(N)=O)C(C)C)C(C)C)[C@H](C)O)[C@H](C)CC)[C@H](C)O)[C@H](C)CC)C(C)C)[C@H](C)O)[C@H](C)CC [D-V10] (H-[dI][dD][dN][dI][dR][dT][dV][dI][dT][dK][dI][dL][dT][dK][dV][dD][dD][dQ][dV]-NH2) | 17.4 |  | 
11 | CC[C@@H](C)[C@@H](N)C(=O)N[C@H](CC(=O)O)C(=O)N[C@H](CC(N)=O)C(=O)N[C@@H](C(=O)N[C@H](CCCNC(=N)N)C(=O)N[C@@H](C(=O)N[C@@H](C(=O)N[C@@H](C(=O)N[C@@H](C(=O)N[C@H](CCCCN)C(=O)N[C@@H](C(=O)N[C@H](CC(C)C)C(=O)N[C@@H](C(=O)N[C@H](CCCCN)C(=O)N[C@H](CC(C)C)C(=O)N[C@H](CC(=O)O)C(=O)N[C@H](CC(=O)O)C(=O)N[C@H](CCC(N)=O)C(=O)N[C@@H](C(N)=O)C(C)C)[C@H](C)O)[C@H](C)CC)[C@H](C)O)[C@H](C)CC)C(C)C)[C@H](C)O)[C@H](C)CC [D-L10] (H-[dI][dD][dN][dI][dR][dT][dV][dI][dT][dK][dI][dL][dT][dK][dL][dD][dD][dQ][dV]-NH2) | 11.8 |  | 
12 | NVIQISNILENLRDLLHV-NH2 | 16 |  | 
13 | CC[C@@H](C)[C@@H](N)C(=O)N[C@H](CC(=O)O)C(=O)N[C@H](CC(N)=O)C(=O)N[C@@H](C(=O)N[C@H](CCCNC(=N)N)C(=O)N[C@@H](C(=O)N[C@@H](C(=O)N[C@@H](C(=O)N[C@@H](C(=O)N[C@H](CCCCN)C(=O)N[C@@H](C(=O)N[C@H](CC(C)C)C(=O)N[C@@H](C(=O)N[C@H](CCCCN)C(=O)N[C@@H](C(=O)N[C@H](CC(=O)O)C(=O)N[C@H](CC(=O)O)C(=O)N[C@H](CCC(N)=O)C(=O)N[C@@H](C(N)=O)C(C)C)[C@H](C)CC)[C@H](C)O)[C@H](C)CC)[C@H](C)O)[C@H](C)CC)C(C)C)[C@H](C)O)[C@H](C)CC [D-I10] (H-[dI][dD][dN][dI][dR][dT][dV][dI][dT][dK][dI][dL][dT][dK][dI][dD][dD][dQ][dV]-NH2) | 17.6 |  | 
14 | NVIQISNVLENLRDLLHV-NH2 | 15.6 |  | 
15 | VQDDIKTLIKTIVTRINDI-NH2 | 21 |  | 
16 | CC[C@@H](C)[C@@H](N)C(=O)N[C@H](CC(=O)O)C(=O)N[C@H](CC(N)=O)C(=O)N[C@@H](C(=O)N[C@H](CCCNC(=N)N)C(=O)N[C@@H](C(=O)N[C@@H](C(=O)N[C@@H](C(=O)N[C@@H](C(=O)N[C@H](CCCCN)C(=O)N[C@@H](C(=O)N[C@H](CC(C)C)C(=O)N[C@@H](C(=O)N[C@H](CCCCN)C(=O)N[C@@H](C(=O)N[C@H](CC(=O)O)C(=O)N[C@H](CC(=O)O)C(=O)N[C@H](CCC(N)=O)C(=O)N[C@@H](C(N)=O)C(C)C)[C@H](C)O)[C@H](C)O)[C@H](C)CC)[C@H](C)O)[C@H](C)CC)C(C)C)[C@H](C)O)[C@H](C)CC [D-T10(1), IDNIRTVITKILTKTDDQV] (H-[dI][dD][dN][dI][dR][dT][dV][dI][dT][dK][dI][dL][dT][dK][dT][dD][dD][dQ][dV]-NH2) | 16.9 |  | 
17 | IQKVQDDTKTLIKTIVTRINDISHTQSVSSKQ-NH2 [Full-length LPA-1 (3-34), reference compound] |  | 39.1 | 39.1
18 | NVIQISNLLENLRDLLHV-NH2 | 16 |  | 
19 | NVIQISNALENLRDLLHV-NH2 | 54 |  | 
